In ChEMBL document CHEMBL5321281, “Synthesis and Biological Evaluation of Heterocyclic Ring-Fused 20(S)-Protopanaxadiol Derivatives as Potent Antiosteoporosis Agents” (J Med Chem, 2023):

Tests used:
BMMC [1] = assay: Cytotoxicity against C57/BL6 mouse BMMC cells assessed as reduction in cell viability at 10 uM incubated for 24 hrs by CCK-8 assay; type: toxicity, cell-based
BMMC [2] = assay: Anti-osteoclastogenic activity in C57/BL6 mouse BMMC cells assessed as inhibition of RANKL-induced osteoclast differentiation at 0.01 uM incubated for 5 to 7 days in presence of M-CSF by TRAP staining based microscopic analysis relative to control; type: functional; conditions: time 5-7 day
BMMC [3] = assay: Anti-osteoclastogenic activity in C57/BL6 mouse BMMC cells assessed as inhibition of RANKL-induced osteoclast differentiation at 0.1 uM incubated for 5 to 7 days in presence of M-CSF by TRAP staining based microscopic analysis relative to control; type: functional; conditions: time 5-7 day
BMMC [4] = assay: Anti-osteoclastogenic activity in C57/BL6 mouse BMMC cells assessed as inhibition of RANKL-induced osteoclast differentiation at 1 uM incubated for 5 to 7 days in presence of M-CSF by TRAP staining based microscopic analysis relative to control; type: functional; conditions: time 5-7 day
BMMC [5] = assay: Anti-osteoclastogenic activity in C57/BL6 mouse BMMC cells assessed as inhibition of RANKL-induced osteoclast differentiation at 5 uM incubated for 5 to 7 days in presence of M-CSF by TRAP staining based microscopic analysis relative to control; type: functional; conditions: time 5-7 day
BMMC [6] = assay: Anti-osteoclastogenic activity in C57/BL6 mouse BMMC cells assessed as inhibition of RANKL-induced osteoclast differentiation incubated for 5 to 7 days in presence of M-CSF by TRAP staining based microscopic analysis relative to control; type: functional, cell-based

In the case of `CC(C)=CC/C=C(\C)[C@H]1CC[C@]2(C)[C@@H]1[C@H](O)C[C@@H]1[C@@]3(C)Cc4cnc(C)nc4C(C)(C)[C@@H]3CC[C@]12C`, the Activity (BMMC [1]) is reported as “>= 100%”, the inhibition at 0.01 µM (BMMC [2]) is reported as 27.4% and the inhibition at 0.1 µM (BMMC [3]) is reported as 96.8%.
With `CC(C)=CCC[C@](C)(O)[C@H]1CC[C@]2(C)[C@@H]1[C@H](O)C[C@@H]1[C@@]3(C)Cc4cnc(-c5ccccc5)nc4C(C)(C)[C@@H]3CC[C@]12C` the Activity (BMMC [1]) was “>= 100%”, the inhibition at 0.1 µM (BMMC [3]) was 0% and the inhibition at 1 µM (BMMC [4]) was 45.5%.
For `CC(=O)O[C@@H]1C[C@@H]2[C@@]3(C)Cc4cnc(C)nc4C(C)(C)[C@@H]3CC[C@@]2(C)[C@]2(C)CC[C@H]([C@@](C)(O)CCC=C(C)C)[C@@H]12`, the Activity (BMMC [1]) was “>= 100%”, the inhibition at 0.01 µM (BMMC [2]) was 6.68% and the inhibition at 0.1 µM (BMMC [3]) was 62.2%.
`CC(C)=CCC[C@](C)(O)[C@H]1CC[C@]2(C)[C@@H]1[C@H](O)C[C@@H]1[C@@]3(C)Cc4cnc(N)nc4C(C)(C)[C@@H]3CC[C@]12C` was tested, and the Activity (BMMC [1]) was “>= 100%”, the inhibition at 0.1 µM (BMMC [3]) was 51.2% and the inhibition at 1 µM (BMMC [4]) was 100%.
With `COc1ncc2c(n1)C(C)(C)[C@@H]1CC[C@]3(C)[C@H](C[C@@H](O)[C@@H]4[C@@H]([C@@](C)(O)CCC=C(C)C)CC[C@]43C)[C@@]1(C)C2` the Activity (BMMC [1]) was “>= 100%”, the inhibition at 0.1 µM (BMMC [3]) was 52.6% and the inhibition at 1 µM (BMMC [4]) was 93.7%.
For `CCc1ncc2c(n1)C(C)(C)[C@@H]1CC[C@]3(C)[C@H](C[C@@H](O)[C@@H]4[C@@H]([C@@](C)(O)CCC=C(C)C)CC[C@]43C)[C@@]1(C)C2`, the Activity (BMMC [1]) was “>= 100%”, the inhibition at 0.1 µM (BMMC [3]) was 90.4% and the inhibition at 1 µM (BMMC [4]) was 100%.
With `CC(C)=CCC[C@](C)(O)[C@H]1CC[C@]2(C)[C@@H]1[C@H](O)C[C@@H]1[C@@]3(C)Cc4cn[nH]c4C(C)(C)[C@@H]3CC[C@]12C` the Activity (BMMC [1]) was “>= 100%”, the inhibition at 5 µM (BMMC [5]) was 84.8% and the inhibition at 1 µM (BMMC [4]) was 41.2%.
`CC(C)=CCC[C@](C)(O)[C@H]1CC[C@]2(C)[C@@H]1[C@H](O)C[C@@H]1[C@@]3(C)Cc4nonc4C(C)(C)[C@@H]3CC[C@]12C` was tested, and the Activity (BMMC [1]) was “>= 100%”, the inhibition at 5 µM (BMMC [5]) was 64.2% and the inhibition at 1 µM (BMMC [4]) was 18.8%.
With `CCOc1ncc2c(n1)C(C)(C)[C@@H]1CC[C@]3(C)[C@H](C[C@@H](O)[C@@H]4[C@@H]([C@@](C)(O)CCC=C(C)C)CC[C@]43C)[C@@]1(C)C2` the Activity (BMMC [1]) was 86.9%, the inhibition at 0.1 µM (BMMC [3]) was 45.7% and the inhibition at 1 µM (BMMC [4]) was 94.1%.
For `CC(C)=CCC[C@](C)(O)[C@H]1CC[C@]2(C)[C@@H]1[C@H](O)C[C@@H]1[C@@]3(C)Cc4cnc(C)nc4C(C)(C)[C@@H]3CC[C@]12C`, the Activity (BMMC [1]) was “>= 100%”, the inhibition at 0.01 µM (BMMC [2]) was 34.5% and the inhibition at 0.1 µM (BMMC [3]) was 96.8%. The inhibition at 1 µM (BMMC [4]) was 100%.
For `CC(C)=CCC[C@](C)(O)[C@H]1CC[C@]2(C)[C@@H]1[C@H](O)C[C@@H]1[C@@]3(C)Cc4nccnc4C(C)(C)[C@@H]3CC[C@]12C`, the Activity (BMMC [1]) was “>= 100%”, the inhibition at 5 µM (BMMC [5]) was 100% and the inhibition at 1 µM (BMMC [4]) was 43.7%.
For `CC(C)=CCC[C@](C)(O)[C@H]1CC[C@]2(C)[C@@H]1/C(=N/O)C[C@@H]1[C@@]3(C)Cc4cnc(C)nc4C(C)(C)[C@@H]3CC[C@]12C`, the Activity (BMMC [1]) was “>= 100%”, the inhibition at 0.01 µM (BMMC [2]) was 0% and the inhibition at 0.1 µM (BMMC [3]) was 61.1%.
With `CC(C)=CCC[C@](C)(O)[C@H]1CC[C@]2(C)[C@@H]1[C@@H](O)C[C@@H]1[C@@]3(C)Cc4cnc(C)nc4C(C)(C)[C@@H]3CC[C@]12C` the Activity (BMMC [1]) was “>= 100%”, the inhibition at 0.01 µM (BMMC [2]) was 0% and the inhibition at 0.1 µM (BMMC [3]) was 84.4%.
With `CC(C)=CCC[C@](C)(O)[C@H]1CC[C@]2(C)[C@@H]1[C@H](O)C[C@@H]1[C@@]3(C)Cc4cnoc4C(C)(C)[C@@H]3CC[C@]12C` the Activity (BMMC [1]) was “>= 100%”, the inhibition at 5 µM (BMMC [5]) was 71.5% and the inhibition at 1 µM (BMMC [4]) was 3.2%.
With `CC(C)=CCC[C@](C)(O)[C@H]1CC[C@]2(C)[C@@H]1C(=O)C[C@@H]1[C@@]3(C)Cc4cnc(C)nc4C(C)(C)[C@@H]3CC[C@]12C` the Activity (BMMC [1]) was “>= 100%”, the inhibition at 0.01 µM (BMMC [2]) was 8.68% and the inhibition at 0.1 µM (BMMC [3]) was 75.8%.
`CC(C)=CCC[C@](C)(O)[C@H]1CC[C@]2(C)[C@@H]1[C@H](O)C[C@@H]1[C@@]3(C)Cc4cncnc4C(C)(C)[C@@H]3CC[C@]12C` was tested, and the Activity (BMMC [1]) was “>= 100%”, the inhibition at 5 µM (BMMC [5]) was 100% and the inhibition at 0.1 µM (BMMC [3]) was 51.9%. For the same compound, the inhibition at 1 µM (BMMC [4]) was 95.3%.
With `Cc1ncc2c(n1)C(C)(C)[C@@H]1CC[C@]3(C)[C@H](C[C@@H](O)[C@@H]4[C@@H]([C@@](C)(O)CCCC(C)C)CC[C@]43C)[C@@]1(C)C2` the Activity (BMMC [1]) was “>= 100%”, the inhibition at 0.01 µM (BMMC [2]) was 9.2% and the inhibition at 0.1 µM (BMMC [3]) was 96%.
`CC(C)=CCC[C@](C)(O)[C@H]1CC[C@]2(C)[C@@H]1[C@H](O)C[C@@H]1[C@@]3(C)CC[C@H](O)C(C)(C)[C@@H]3CC[C@]12C` was tested, and the Activity (BMMC [1]) was “>= 100%”, the IC50 (BMMC [6]) was 11.8 µM and the inhibition at 5 µM (BMMC [5]) was 63.9%. The inhibition at 1 µM (BMMC [4]) was 10.2%.
For `CC(C)=CCC[C@](C)(O)[C@H]1CC[C@]2(C)[C@@H]1[C@H](O)C[C@@H]1[C@@]3(C)Cc4cnn(-c5ccccc5)c4C(C)(C)[C@@H]3CC[C@]12C`, the Activity (BMMC [1]) was “>= 100%”, the inhibition at 5 µM (BMMC [5]) was 12.9% and the inhibition at 1 µM (BMMC [4]) was 0%.
